Measured values as given in patent US20210087159A1, “TETRAHYDROCANNABINOLIC- CA[…] DERIVATIVES AND USES THEREOF” (AL&AM […]., priority 2018, published 2021).

Assays:
[1] = tested on: Caco-2 ATCC colon adenocarcinoma; experiment: CellTiter-Glo cell viability assay, cancer cell cytotoxicity/anti-proliferation panel (Chempartner); type: cell-based
[2] = tested on: TE-6 RIKEN esophagus, carcinoma; experiment: as above; type: cell-based

CCCCCc1cc2c(c(O)c1C(=O)NCCCN1CCOCC1)[C@@H]1C=C(C)CC[C@H]1C(C)(C)O2 [Ia9, (6aR,0aR)-1-hydroxy-6,6,9-trimethyl-N-(3-morpholinopropyl)-3-pentyl-6a,7,8,10a-tetrahydro-6H-benzo[c]chromene-2-carboxamide]
Inhibition ([1]; Caco-2, 72 hours, compounds 10 μM starting, STS 2 μM starting, 10-pt, 3-fold dilution): 60.81%
IC50 ([1]; Homo sapiens, Caco-2, 72 h, read-out: IC50 (absolute IC50)): 8.87 µM
IC50 ([2]; 72 h, read-out: IC50 (absolute IC50)): 7.36 µM
Inhibition ([2]; TE-6, 72 hours, compounds 10 μM starting, STS 2 μM starting, 10-pt, 3-fold dilution): 67.27%
